According to patent publication US20090162305A1, “FORMULATIONS OF LOW OIL CONTENT COMPRISING […] DERIVATIVES” (SYMRISE GmbH & Co. KG, priority 2006, published 2009):

Assay: ABTS assay, cell-free in vitro test of antioxidative capacity
Assay type: biochemical
Excerpt: ABTS assay is a cell-free in vitro test for evaluation of antioxidative capacity (literature: Re R, Pellegrini N, Proteggente A, Pannala A, Yang M, Rice-Evans C. 1999. “Antioxidant activity applying an improved ABTS radical cation decolorization assay”; Free Radic. Biol. Med. 26: 1231-7). The assay uses the intrinsic colouration of a solution prepared with the cationic radical 2,2′-azinobis(3-ethylbenzothiazoline-6-sulfonic acid) (ABTS+) and potassium persulfate, which is decolourized by addition of antioxidants (reduction of the cationic radical). This decolouration can be measured photometrically at 734 nm. The test is carried out in 96-well microtitre plates. […] All the ABTS test results result from two independent experiments and are presented as means with the associated deviation from the mean.
In order to test whether the antioxidative activity of styrylresorcinol (formula 3; CARN 85-27-8; 4-(1-phenylethyl)-1,3-dihydroxybenzene) is adversely influenced by the presence of significant amounts of oily phase, in a further experiment the antioxidative capacity of two products comprising 30 percent by weight of 2-ethylhexyl isononanoate (INCI Ethylhexyl Isononanoate; product A) and, respectively, 5 percent by weight of 2-ethylhexyl isononanoate (INCI Ethylhexyl Isononanoate; product B) was determined with the aid of ABTS assay.

With `CC(c1ccccc1)c1ccc(O)cc1O` (stereo not drawn) [Styrylresorcinol, 4-(1-phenylethyl)-1,3-dihydroxybenzene] the “reduction in the antioxidative capacity compared with the oil-free reference sample” value (5% of oily phase) was 1.6%, the “deterioration in the antioxidative capacity compared with the oil-free reference sample” value (30% of oily phase, 0.01% styrylresorcinol) was 13.5% and the “antioxidative capacity greater than that of the reference substance alpha-tocopherol, factor” value (ABTS, versus alpha-tocopherol) was roughly 2. It also gave an antioxidative capacity (ethanolic solution containing 0.01% styrylresorcinol with 30% of oily phase (product A)) of 79.4%, an antioxidative capacity (mixture according to the invention comprising only 5% of oily phase (product B)) of 91.35 and an antioxidative capacity (oil-free reference sample containing only 0.01% styrylresorcinol (product C)) of 92.9%.
